{
  "source": "patent US6770287B1",
  "about": "“Biocidal cellulosic material” (The Regents of the University of California, priority 2000, dated 2004)",
  "key": {"E. coli [1]": {"test_system": "E. coli", "experiment": "AATCC Test Method 100 quantitative antibacterial test (bacterial reduction)", "type": "cell-based, Escherichia coli (ATCC 2666)", "conditions": "Anti-1 4%, contact time 60 min", "text": "(§1) AATCC Test Method 100 was adopted in this study. According to this test method, four pieces of staked circular fabric swatches 4.8±0.1 (about one grams) were inoculated with 1.0±0.1 milliliter of inoculum in a 250 milliliter jar. The inoculum was a nutrient broth culture containing over 1.0×10^6 clone forming units (CFU) of organisms. After the swatches were inoculated, they were neutralized by 100 milliliter of a 0.02% sodium thiosulfate solution in the jar. The contact time was the time between inoculation and neutralization. The jar was vigorously shaken and the neutralized solution was diluted in serial. The dilutions, usually 100, 101, and 102, were plated on nutrient agar and incubated for 18-24 hours at 37° C. The number of bacteria recovered from the inoculated finished fabrics was counted and compared with that from untreated fabrics. Six log reduction means the total inactivation of bacteria, and one log reduction means that finished fabrics reduced bacteria counts from 106 CFU to 105 CFU.\n(§2) Finished fabrics prepared from solutions containing 1%-6% of monomethylol-5,5-dimethylhydantoin following the protocol set forth in Example 1 with pickup rates below 1% have been tested.\n(§3) Fabrics finished in accordance with the protocol set forth in Example II with Anti-2, i.e., 1,3-dimethylol-5,5-dimethylhydantoin, were also tested with AATCC test method 100, which was briefly described in Example IV. In the tests, a diluted CLOROX® solution containing 0.01 % active chlorine was used to chlorinate the finished fabrics."}, "E. coli [2]": {"test_system": "E. coli", "experiment": "AATCC Test Method 147 qualitative antibacterial test (inhibition zone)", "type": "cell-based, Escherichia coli (ATCC 2666)", "text": "Fabric samples of #405 (pure cotton, Testfabrics, Inc., Middlesex, N.J.) and # 7402 (cotton/polyester 35/65, Testfabrics, Inc., Middlesex, N.J.) were finished in a manner similar to that set forth in Example I. The concentration of the finishing agent used was from about 5 to 15% in the finishing of the cotton fabrics and from about 5 to 20% in the finishing of the cotton/polyester (35/65) blend fabric because of the lower concentration of cellulose in the blend. The final biocidal property was imparted onto the finished fabrics by washing them with a diluted CLOROX® solution containing 0.25% chlorine after each washing circle. Qualitative antibacterial tests were conducted according to AATCC Test Method 147.\nIn the AATCC Test Method 147, two pieces of chlorinated fabrics with the size of 25 mm×50 mm were placed on a nutrient agar plate which had been inoculated by five streaks of a diluted bacteria solution using a 4 mm inoculating loop. The diluted bacteria solution was prepared by transferring 1.0 milliliter of 24 hour broth culture into 9.0 milliliter of sterile distilled water. The agar plate was incubated at 37° C. for 18-24 hours. The minimum width of inhibition zone along a streak on either side of the test specimen are measured. Table I sets forth the qualitative biocidal evaluations of the finished fabrics with different concentration of the agent Anti-1."}, "S. aureus": {"test_system": "S. aureus", "experiment": "AATCC Test Method 100 quantitative antibacterial test (bacterial reduction)", "type": "cell-based, Staphylococcu aureus (ATCC 5368)", "text": "as §1, §2, §3"}, "[3]": {"conditions": "#405 cotton, Anti-1 5%, add-on 1.2%"}, "[4]": {"conditions": "#405 cotton, Anti-1 10%, add-on 2.3%"}, "[5]": {"conditions": "#405 cotton, Anti-1 15%, add-on 3.1%"}, "[6]": {"conditions": "#7402 cotton/polyester 35/65, Anti-1 5%, add-on 0.8%"}, "[7]": {"conditions": "#7402 cotton/polyester 35/65, Anti-1 10%, add-on 1.4%"}, "[8]": {"conditions": "#7402 cotton/polyester 35/65, Anti-1 15%, add-on 1.6%"}, "[9]": {"conditions": "#7402 cotton/polyester 35/65, Anti-1 20%, add-on 2.0%"}, "[10]": {"conditions": "Anti-1 1%, #7402, take up 0.14%"}, "[11]": {"conditions": "Anti-1 2%, #7402, take up 0.07%"}},
  "data": [
    {"smiles": "CC1(C)NC(=O)N(CO)C1=O", "note": "[Anti-1, monomethylol-5,5-dimethylhydantoin]", "values": [
      {"measurement": "Bacterial Reduction Rates After fifteen washings E. coli", "setting": "E. coli [1]; Cl 0.01%, #400", "result": 6, "unit": "log"},
      {"measurement": "Bacterial Reduction Rates After five Washings E. coli", "setting": "E. coli [1]; Cl 0.01%, #400", "result": 6, "unit": "log"},
      {"measurement": "Bacterial Reduction Rates After ten Washings E. coli", "setting": "E. coli [1]; Cl 0.01%, #400", "result": 6, "unit": "log"},
      {"measurement": "Bacterial Reduction Rates After twenty washings E. coli", "setting": "E. coli [1]; Cl 0.01%, #400", "result": 6, "unit": "log"},
      {"measurement": "Bacterial Reduction Rates After fifteen washings E. coli", "setting": "E. coli [1]; Cl 0.01%, #7409", "result": 6, "unit": "log"},
      {"measurement": "Bacterial Reduction Rates After five Washings E. coli", "setting": "E. coli [1]; Cl 0.01%, #7409", "result": 6, "unit": "log"},
      {"measurement": "Bacterial Reduction Rates After ten Washings E. coli", "setting": "E. coli [1]; Cl 0.01%, #7409", "result": 6, "unit": "log"},
      {"measurement": "Bacterial Reduction Rates After twenty washings E. coli", "setting": "E. coli [1]; Cl 0.01%, #7409", "result": 6, "unit": "log"},
      {"measurement": "Bacterial Reduction Rates After fifteen washings E. coli", "setting": "E. coli [1]; Cl 0.1%, #400", "result": 6, "unit": "log"},
      {"measurement": "Bacterial Reduction Rates After five Washings E. coli", "setting": "E. coli [1]; Cl 0.1%, #400", "result": 6, "unit": "log"},
      {"measurement": "Bacterial Reduction Rates After ten Washings E. coli", "setting": "E. coli [1]; Cl 0.1%, #400", "result": 6, "unit": "log"},
      {"measurement": "Bacterial Reduction Rates After twenty washings E. coli", "setting": "E. coli [1]; Cl 0.1%, #400", "result": 1, "unit": "log"},
      {"measurement": "Bacterial Reduction Rates After fifteen washings E. coli", "setting": "E. coli [1]; Cl 0.1%, #7409", "result": 6, "unit": "log"},
      {"measurement": "Bacterial Reduction Rates After five Washings E. coli", "setting": "E. coli [1]; Cl 0.1%, #7409", "result": 6, "unit": "log"},
      {"measurement": "Bacterial Reduction Rates After ten Washings E. coli", "setting": "E. coli [1]; Cl 0.1%, #7409", "result": 6, "unit": "log"},
      {"measurement": "Bacterial Reduction Rates After twenty washings E. coli", "setting": "E. coli [1]; Cl 0.1%, #7409", "result": 6, "unit": "log"},
      {"measurement": "Bacterial Reduction Rates After fifteen washings E. coli", "setting": "E. coli [1]; Cl 0.25%, #400", "result": 1, "unit": "log"},
      {"measurement": "Bacterial Reduction Rates After five Washings E. coli", "setting": "E. coli [1]; Cl 0.25%, #400", "result": 6, "unit": "log"},
      {"measurement": "Bacterial Reduction Rates After ten Washings E. coli", "setting": "E. coli [1]; Cl 0.25%, #400", "result": 2, "unit": "log"},
      {"measurement": "Bacterial Reduction Rates After twenty washings E. coli", "setting": "E. coli [1]; Cl 0.25%, #400", "result": 1, "unit": "log"},
      {"measurement": "Bacterial Reduction Rates After fifteen washings E. coli", "setting": "E. coli [1]; Cl 0.25%, #7409", "result": 6, "unit": "log"},
      {"measurement": "Bacterial Reduction Rates After five Washings E. coli", "setting": "E. coli [1]; Cl 0.25%, #7409", "result": 6, "unit": "log"},
      {"measurement": "Bacterial Reduction Rates After ten Washings E. coli", "setting": "E. coli [1]; Cl 0.25%, #7409", "result": 6, "unit": "log"},
      {"measurement": "Bacterial Reduction Rates After twenty washings E. coli", "setting": "E. coli [1]; Cl 0.25%, #7409", "result": 1, "unit": "log"},
      {"measurement": "Biocidal Results After 20 Times Washing E. coli", "setting": "E. coli [2]; [3]", "result": ">3", "unit": "mm"},
      {"measurement": "Biocidal Results After 50 Times Washing E. coli", "setting": "E. coli [2]; [3]", "result": ">1", "unit": "mm"},
      {"measurement": "Biocidal Results After 20 Times Washing E. coli", "setting": "E. coli [2]; [4]", "result": ">8", "unit": "mm"},
      {"measurement": "Biocidal Results After 50 Times Washing E. coli", "setting": "E. coli [2]; [4]", "result": ">3", "unit": "mm"},
      {"measurement": "Biocidal Results After 20 Times Washing E. coli", "setting": "E. coli [2]; [5]", "result": "kill all"},
      {"measurement": "Biocidal Results After 50 Times Washing E. coli", "setting": "E. coli [2]; [5]", "result": ">4", "unit": "mm"},
      {"measurement": "Biocidal Results After 20 Times Washing E. coli", "setting": "E. coli [2]; [6]", "result": ">3", "unit": "mm"},
      {"measurement": "Biocidal Results After 50 Times Washing E. coli", "setting": "E. coli [2]; [6]", "result": ">1", "unit": "mm"},
      {"measurement": "Biocidal Results After 20 Times Washing E. coli", "setting": "E. coli [2]; [7]", "result": ">3", "unit": "mm"},
      {"measurement": "Biocidal Results After 50 Times Washing E. coli", "setting": "E. coli [2]; [7]", "result": ">2", "unit": "mm"},
      {"measurement": "Biocidal Results After 20 Times Washing E. coli", "setting": "E. coli [2]; [8]", "result": "kill all"},
      {"measurement": "Biocidal Results After 50 Times Washing E. coli", "setting": "E. coli [2]; [8]", "result": ">2", "unit": "mm"},
      {"measurement": "Biocidal Results After 20 Times Washing E. coli", "setting": "E. coli [2]; [9]", "result": "kill all"},
      {"measurement": "Biocidal Results After 50 Times Washing E. coli", "setting": "E. coli [2]; [9]", "result": ">3", "unit": "mm"},
      {"measurement": "Bacterial reduction rates on contact time 0 min S. aureus", "setting": "S. aureus; Anti-1 1%, #400, take up 0.65%", "result": "No"},
      {"measurement": "Bacterial reduction rates on contact time 30 min S. aureus", "setting": "S. aureus; Anti-1 1%, #400, take up 0.65%", "result": 1, "unit": "log"},
      {"measurement": "Bacterial reduction rates on contact time 60 min S. aureus", "setting": "S. aureus; Anti-1 1%, #400, take up 0.65%", "result": "No"},
      {"measurement": "Bacterial reduction rates on contact time 0 min S. aureus", "setting": "S. aureus; [10]", "result": "No"},
      {"measurement": "Bacterial reduction rates on contact time 30 min S. aureus", "setting": "S. aureus; [10]", "result": "No"},
      {"measurement": "Bacterial reduction rates on contact time 60 min S. aureus", "setting": "S. aureus; [10]", "result": "No"},
      {"measurement": "Bacterial reduction rates on contact time 0 min S. aureus", "setting": "S. aureus; Anti-1 2%, #400, take up 0.03%", "result": 1, "unit": "log"},
      {"measurement": "Bacterial reduction rates on contact time 30 min S. aureus", "setting": "S. aureus; Anti-1 2%, #400, take up 0.03%", "result": 6, "unit": "log"},
      {"measurement": "Bacterial reduction rates on contact time 60 min S. aureus", "setting": "S. aureus; Anti-1 2%, #400, take up 0.03%", "result": 6, "unit": "log"},
      {"measurement": "Bacterial reduction rates on contact time 0 min S. aureus", "setting": "S. aureus; [11]", "result": "No"},
      {"measurement": "Bacterial reduction rates on contact time 30 min S. aureus", "setting": "S. aureus; [11]", "result": 1, "unit": "log"},
      {"measurement": "Bacterial reduction rates on contact time 60 min S. aureus", "setting": "S. aureus; [11]", "result": 6, "unit": "log"},
      {"measurement": "Bacterial reduction rates on contact time 0 min S. aureus", "setting": "S. aureus; Anti-1 4%, #400, take up 0.47%", "result": 6, "unit": "log"},
      {"measurement": "Bacterial reduction rates on contact time 30 min S. aureus", "setting": "S. aureus; Anti-1 4%, #400, take up 0.47%", "result": 6, "unit": "log"},
      {"measurement": "Bacterial reduction rates on contact time 60 min S. aureus", "setting": "S. aureus; Anti-1 4%, #400, take up 0.47%", "result": 6, "unit": "log"},
      {"measurement": "Bacterial reduction rates on contact time 0 min S. aureus", "setting": "S. aureus; Anti-1 4%, #7402, take up 0.45%", "result": 6, "unit": "log"}
    ]}
  ]
}
